Experimental data taken from patent US11331368B2, “Angiotensin receptor agonists and uses thereof” (Monash University, priority 2017, dated 2022).
One block for each compound: values may come before it.

Legend:
human AT2R = biological target: T1, human AT2R (Homo sapiens, UniProt P50052); test: Competition radioligand binding (125I-Sar1-Ile8-AngII) in AT2R-transfected HEK-293 cells; details: for Fold AT2R selectivity: AT2R over AT1R, Table 3
T1 construct: expressed in transfected cells
T1 sequence (P50052 1-363): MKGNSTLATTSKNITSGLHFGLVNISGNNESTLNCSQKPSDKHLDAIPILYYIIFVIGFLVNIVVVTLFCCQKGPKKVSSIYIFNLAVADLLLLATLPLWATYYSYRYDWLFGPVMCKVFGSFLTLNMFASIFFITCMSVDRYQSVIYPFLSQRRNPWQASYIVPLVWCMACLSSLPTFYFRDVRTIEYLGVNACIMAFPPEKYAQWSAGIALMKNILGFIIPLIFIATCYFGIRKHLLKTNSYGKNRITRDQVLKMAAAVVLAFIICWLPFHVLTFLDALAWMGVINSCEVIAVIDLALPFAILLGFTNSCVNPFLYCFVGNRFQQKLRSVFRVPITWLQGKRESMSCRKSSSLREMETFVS
Method: (§1) This will lead to the generation of IC50 values that determine the relative ability of test compounds to interact with both Angiotensin receptors.
(§2) Cells were grown to approximately 80% confluence before being re-plated into 48 well plates at 1×10^5 cells/well and grown for 48 hours at 37° C. for a whole cell competition binding assay. [125I]-Sar1Ile8Ang II at 50,000 cpm, incubated for 45 minutes at 37° C., in the absence or presence of unlabeled ligands, prepared in binding buffer (DMEM, 0.1% BSA), were used in the competition assays at concentrations ranging from 1 μM to 10 μM. For each experiment, each ligand concentration was tested in duplicate or triplicate, and each experiment was repeated at least 3 separate times. […] The ability of each ligand to inhibit specific binding of [125I]-Sar1Ile8Ang II was measured on a gamma counter with all counts corrected for NSB.

human AT1R = biological target: T2, human AT1R (Homo sapiens, UniProt P30556); test: Competition radioligand binding (125I-Sar1-Ile8-AngII) in AT1R-transfected HEK-293 cells
T2 construct: expressed in transfected cells
T2 sequence (P30556 1-359): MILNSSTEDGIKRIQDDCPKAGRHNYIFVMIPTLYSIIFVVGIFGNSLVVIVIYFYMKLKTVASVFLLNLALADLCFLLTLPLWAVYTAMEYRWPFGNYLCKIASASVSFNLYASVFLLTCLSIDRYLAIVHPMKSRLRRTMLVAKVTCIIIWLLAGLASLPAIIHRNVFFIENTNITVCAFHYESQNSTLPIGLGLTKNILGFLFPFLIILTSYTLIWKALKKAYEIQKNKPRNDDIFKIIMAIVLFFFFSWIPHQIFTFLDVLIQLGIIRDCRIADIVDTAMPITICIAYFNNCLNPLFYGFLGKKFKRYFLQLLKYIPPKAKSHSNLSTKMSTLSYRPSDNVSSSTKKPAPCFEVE
Method: as §1, §2

[1] = test system: male FVB/N mice on high salt diet, heart; test: High salt (5%) diet intervention model, heart; assay type: in vivo, mouse
Method: C) In the intervention (or reversal) model, male FVB/N mice were treated with selective AT2Rs agonists after the establishment of cardiovascular disease using a high salt diet, in order to reverse cardiovascular pathologies. In some experiments, the ACE inhibitor captopril (dose) or the ARB candesartan cilexetil (dose) were given for 4 weeks in drinking water. Organs examined included heart, kidney and liver and these were compared to either untreated mice or high salt-fed mice that were treated with saline.
A high-salt diet (5% salt) model is a clinically relevant and disease-reversal model which can replicate the high salt intake by humans which is currently a growing problem in the developed countries. High salt intake induces changes in the cardiovascular system and induces remodelling and fibrosis in the heart, kidney and liver.
Mice were placed on either a normal rodent diet (0.35% NaCl) which acted as control or a high salt diet (5% sodium in food chow) for 8 weeks. After 4 weeks, mice were also treated subcutaneously (via osmotic mini-pump) with either saline or an AT2R agonist (75 pmol/kg/min subcutaneously) for 4 weeks. Mice continued to be fed a high salt diet whilst receiving these treatments.
All mice which underwent surgery were anaesthetized with Isoflurane (Isorrane) (5% induction and 2.5% maintenance) and an incision made in the midscapular region through which osmotic minipumps (Alzet model 2004, Alza Corp) were inserted for subcutaneous drug administration. The incision area was sutured with 6/0 DY silk (Dynek Pty Ltd) and antibiotic powder applied (Cicatrin, Pfizer) followed by intramuscular injection of the analgesic Cartrophen (0.1 ml of a 1.5 mg/ml stock solution; Biopharm Australia). Systolic blood pressure (SBP) was measured using non-invasive tail-cuff plethysmography apparatus (MC4000 Blood Pressure Analysis System, Hatteras Instrument Inc) before drug treatment (week 0), and then fortnightly. At the end of the 8 week treatment period mice were weighed before being killed by overdose of isoflurane inhalation and cervical dislocation.
To measure collagen deposition, frozen sections of heart, kidney or aorta (all 5 μm thickness) were air dried for 10 minutes and were brought through 3 times xylene (2 minutes each), and 3 times absolute alcohol washes before being rinsed in tap H2O for 30 seconds. Staining with an optimal concentration of picrosirius red (in this instance 0.05% picrosirius red diluted in saturated picric acid) was performed and left for an hour. Sections were then rinsed in water and differentiated in 0.01M HCl for 2 minutes, followed by dehydration via 3 times absolute alcohol washes. Then, slides were brought through 3 times xylene washes before being cover slipped according to standard histological techniques using DPX as the mounting medium. Images were taken under ×20 magnification, using bright field (Olympus, BX51) and circularized polarized light microscopy (DM IRB, Leica) while percentage of positive interstitial collagen staining per total field of view was quantified using ImageJ 1.46 software (Java, NIH), and averaged out from a total of eight views as the final percentage collagen content in a particular animal.
Immunostaining was performed on 5 μm thick transverse frozen heart sections. These sections were air dried and fixed in ice-cold acetone for approximately 15 minutes before washing with 0.01M PBS buffer (3×10 minutes). Sections were then incubated with 10% goat serum in 0.01M PBS for 30 minutes to reduce non-specific binding. If the primary antibody is raised in goat, this pre-blocked medium is substituted with 5% BSA in PBS and Triton-X. Next, blocking buffers were removed and the primary antibody to respective markers were applied overnight at room temperature based on the following dilution and origin of the antibodies: α-SMA (1:500, Abcam), Vimentin (1:500, Santa Cruz), P-IκBα (1:200, Cell Signalling), F4/80 macrophage (1:100, Serotec). […]

[2] = PD123319 1 mg/kg/day s.c. with β-Pro7-Ang III or D-Arg2-β-Pro7-Ang III
[3] = weeks 5-8, peptide 75 pmol/kg/min s.c., Cand 2 mg/kg/day, captopril 3 mg/kg/day

Compound: Nicotinamido-Arg-Val-Tyr-Ile-His-β-Pro-Trp [Nic-βPro-Trp-8-Ang III]
Fold AT2R selectivity (human AT2R): >15,000 fold

Compound: Tetrazole-CONH- Arg-Val-Tyr-Ile-His- β-Pro-Phe [Tet-βPro-Ang III]
Fold AT2R selectivity (human AT2R): >60,000 fold

Compound: CC[C@H](C)[C@H](NC(=O)[C@H](Cc1ccc(O)cc1)NC(=O)[C@@H](NC(=O)[C@H](N)CCCNC(=N)N)C(C)C)C(=O)N[C@@H](Cc1c[nH]cn1)C(=O)N1CCC[C@H]1C(=O)N[C@@H](Cc1ccccc1)C(=O)O [D-Arg-Ang III, D-Arg-Val-Tyr-Ile-His-Pro-Phe]
IC50 (human AT1R; 125I-Sar1-Ile8-AngII): > 10 µM | Fold AT2R selectivity (human AT2R): 400 fold

Compound: Cc1cc(Cn2cnc3c2C[C@@H](C(=O)O)N(C(=O)C(c2ccccc2)c2ccccc2)C3)ccc1N(C)C [PD123319, reference compound]
effect of AT2R antagonist co-treatment on peptide anti-fibrotic effect (cardiac fibrosis, picrosirius red) [1, 2]: attenuated the anti-fibrotic effects of these peptides | effect of AT2R antagonist co-treatment on peptide inhibition of myofibroblast differentiation (α-SMA) [1, 2]: attenuated the inhibitory effects of these peptides

Compound: Tetrazole-CONH-Arg-Val-Tyr-Ile-His-β-Pro-Trp [Tet-βPro-Trp-8-Ang III]
Fold AT2R selectivity (human AT2R): >275,000 fold

Compound: CCOc1nc2cccc(C(=O)OC(C)OC(=O)OC3CCCCC3)c2n1Cc1ccc(-c2ccccc2-c2nnn[nH]2)cc1 (stereo not shown) [candesartan cilexetil, reference compound]
MMP-13 protein expression in heart (Western blot) [1, 3]: Neither captopril nor Cand altered MMP-13 levels | macrophage infiltration/expression in heart (F4/80) [1, 3]: reversed by all agents | expression of P-IκBα (marker for NFκB activation) in heart ([1]; weeks 5-8, peptides 75 pmol/kg/min s.c., Cand 2 mg/kg/day, captopril 3 mg/kg/day): reversed only by β-Ile^5-Ang II | cardiac fibrosis (picrosirius red) ([1]; weeks 5-8 of high salt diet, peptides 75 pmol/kg/min s.c. mini-pump, Cand 2 mg/kg/day, captopril 3 mg/kg/day in drinking water): did not significantly reduce fibrosis

The next lines start with the values.

Fold AT2R selectivity (human AT2R): 1854 fold
Compound: β-Arg-Val-Tyr-Ile-His-Pro-Trp [βArg-Trp-8-Ang III]

Fold AT2R selectivity (human AT2R): 200 fold
Compound: Arg-Val-Tyr-Ile-His-β-Pro-Ala [βPro-Ala-8-Ang III]

binding at AT1R (displacement of 125I-Sar1-Ile8-AngII), in words (human AT1R): bind poorly | binding at AT2R (displacement of 125I-Sar1-Ile8-AngII), in words (human AT2R; transfected HEK-293 cells): high affinity
Compound: CC[C@H](C)[C@H](NC(=O)C[C@H](Cc1ccc(O)cc1)NC(=O)[C@@H](NC(=O)[C@@H](N)CCCNC(=N)N)C(C)C)C(=O)N[C@@H](Cc1c[nH]cn1)C(=O)N1CCC[C@H]1C(=O)N[C@@H](Cc1c[nH]c2ccccc12)C(=O)O [βTyr-Trp-8-Ang III, Arg-Val-β-Tyr-Ile-His-Pro-Trp]

Fold AT2R selectivity (human AT2R): >2500 fold
Compound: Arg-Val-Tyr-β-Ile-His-Pro-Trp [βILe-Trp-8-Ang III]
